Source: patent US20170190726A9, “PRODRUG FOR RELEASE OF CISPLATIN AND CYCLOOXYGENASE INHIBITOR” (priority 2013, published 2017)

Key:
IL-6 = experiment: ELISA of IL-6 in LPS-stimulated RAW 264.7 macrophages; assay type: cell-based, mouse
Method: RAW 264.7 cells were plated at a concentration of 10,000 cells/mL in 96 plates and allowed to grow overnight. For preventative anti-inflammatory treatment, Platin-A (10 μM), aspirin (10 μM), cisplatin (10 μM) and an equimolar ratio of cisplatin and aspirin (10 μM each) was incubated with the RAW cells for 6 h. Lipopolysaccharide (LPS) (100 ng/mL) was added and the cells were further incubated for 12 h. For therapeutic anti-inflammatory treatment, LPS (100 ng/mL) was added to the RAW cells and incubated for 6 h. Platin-A (10 μM), aspirin (10 μM), cisplatin (10 μM) and an equimolar ratio of cisplatin and aspirin (10 μM each) was then added to the cells and incubated for 12 h. ELISA was performed on the supernatants against the cytokines interleukin (IL)-6, IL-10, and TNF-α. Briefly, antibody coated plates were blocked with 10% FBS in PBS for 1 h at room temperature followed by 3 washes. RAW cell supernatants were incubated on the plates for 2 h at room temperature. This was immediately followed by washings and sequential incubations with the cytokine-biotin conjugate and streptavidin working solution. Finally, the substrate reagent containing 3,3′,5,5′-tetramethylbenzidine (100 μL) was added to each well, incubated for 15 min, the reaction was stopped by adding 50 μL H2SO4 (0.1 M). The absorbance was recorded at 450 nm using a BioTek Synergy HT well plate reader.

Cyclic voltammetry = assay type: physicochemical
Method: FIG. 6: Cyclic voltammograms of ‘Platin-A’ in 1:4 dimethyformamide (DMF)-phosphate buffer-0.1 M KCl at two different pH values.
Electrochemical measurements were made at 25° C. on an analytical system model CHI 920c potentiostat from CH Instruments, Inc. (Austin, Tex.). A conventional three-electrode set-up comprising a glassy carbon working electrode, platinum wire auxiliary electrode and an Ag/AgCl (3M KCl) reference electrode was used for electrochemical measurements. The electrochemical data were uncorrected for junction potentials. KCl was used as a supporting electrolyte. Platin-A (2 mM) solutions were prepared in 20% DMF-phosphate buffered saline (PBS) of pH 6.4 and 7.4 with […] and voltammograms were recorded at different scan rates (FIG. 6).

IL-10 = experiment: ELISA of IL-10 in LPS-stimulated RAW 264.7 macrophages; assay type: cell-based, mouse; conditions: preventive: pretreatment 10 μM 6 h, then LPS 12 h
Text: Chronic inflammation can be important for progression of human cancers, including PCa. Pro-inflammatory cytokines, TNF-α and interleukin (IL)-6, can be important for proliferation, survival, metastasis, and escape from immune surveillance of cancers. Chronic inflammation by activation of toll like receptors (TLRs) on cancer cells creates a tumor micro-environment which impairs the anti-tumor function of the immune system to allow to develop and survive. The cytokines TNF-α and IL-6 are potent activators of NF-κB, a key modulator of inflammation-induced carcinogenesis. Enhanced TNF-α secretion mediates cisplatin nephrotoxicity. The anti-inflammatory cytokine, IL-10 inhibits inflammatory and cytotoxic pathways in cisplatin-induced acute renal injury. […] First, we evaluated the effects of Platin-A, cisplatin, a combination of cisplatin and aspirin, and aspirin on pro-inflammatory cytokines IL-6, TNF-α, and anti-inflammatory IL-10 production in LPS-stimulated RAW 264.7 macrophages. […] To exclude the possibility that the decrease in the cytokines levels was simply due to the cytotoxicity of Platin-A, cell viability was evaluated. […]
RAW 264.7 cells were plated at a concentration of 10,000 cells/mL in 96 plates and allowed to grow overnight. […] The absorbance was recorded at 450 nm using a BioTek Synergy HT well plate reader.

CC(=O)Oc1ccccc1C(=O)[O][Pt]([NH2])([NH2])([OH])([Cl])[Cl] [Platin-A]
LPS-induced IL-6 production (IL-6; preventive: pretreatment 10 μM 6 h, then LPS 12 h): significantly inhibited
levels of IL-6 (IL-6; therapeutic: LPS activated macrophages then 10 μM for 12 h): significantly reduced
positive shift of reduction potential (Cyclic voltammetry; pH 6.4 compared with pH 7.4): 42 mV
reduction potential (Cyclic voltammetry; pH 7.4, vs. normal hydrogen electrode (NHE)): −536 mV
level of IL-10 (IL-10): enhanced level of IL-10
